This note sets out measurements from publication PMC4032193 (Journal of Medicinal Chemistry, 2014).

What all share (assay): microbe, parasite or virus in culture
What all share (type): cell-based

Assay [1] relates to P. falciparum multidrug resistant TM91C235 strain (Thailand). As to conditions: Plasmodium falciparum, read-out: TM91C235 IC50.
Assay [2] has as its system P. falciparum Indochina W2 clone. Conditions: Plasmodium falciparum, W2, read-out: W2 IC50.
Assay [3] relates to P. falciparum African D6 clone. As to conditions: Plasmodium falciparum, D6, read-out: D6 IC50.

For the molecule `CC(=O)O[C@@H]1CC[C@@]2(C)[C@@H](C1)C[C@@H](OC(C)=O)[C@@H]1[C@@H]2C[C@H](OC(C)=O)[C@]2(C)[C@@H]([C@H](C)CCCNCCNc3ccnc4cc(Cl)ccc34)CC[C@@H]12` [Compound 12, N-(3α,7α,12α-Triacetoxy-5β-cholan-24-yl)-N′-(7′-chloroquinolin-4′-yl)ethane-1,2-diamine], the IC50 in assay [1] amounted to 0.0277 µM; in assay [2] it was 0.0114 µM; in assay [3] it was 0.0169 µM.
